How the values were obtained:
[1] = In vivo IV dosing in CrT KO mice: prodrug, d3-Cr and d3-Crn in brain (Table 5); conditions: CrT KO mouse brain, BQL prodrug = 41.2 ng/mL
Outline: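 CrT KO mice received prodrugs by IV injection at 10, 15 or 25 mg/kg. Brains were collected, flash frozen and homogenized in 100 mM KPI buffer with anti-proteases. Prodrug, d3-Cr and d3-Crn were quantified by LC-MS/MS and expressed as brain concentration (macrocycles) or AUC over time (linear prodrugs).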

ARPE-19 cells = test: Creatine prodrug uptake and d3-creatine release in ARPE-19 cells (Table 4A); format: cell-based, human; conditions: 50 μM, 6 h, cytosol fraction, corrected for total protein
[2] = target: T1, recombinant human FAAH enzyme (rFAAH) (Homo sapiens, UniProt O00519); test: Direct prodrug cleavage with recombinant human FAAH enzyme (rFAAH): d3-Cr release and d3-Crn cyclization; format: biochemical; conditions: 200 μM prodrug, 3 h; result in words
T1 sequence (O00519 1-579): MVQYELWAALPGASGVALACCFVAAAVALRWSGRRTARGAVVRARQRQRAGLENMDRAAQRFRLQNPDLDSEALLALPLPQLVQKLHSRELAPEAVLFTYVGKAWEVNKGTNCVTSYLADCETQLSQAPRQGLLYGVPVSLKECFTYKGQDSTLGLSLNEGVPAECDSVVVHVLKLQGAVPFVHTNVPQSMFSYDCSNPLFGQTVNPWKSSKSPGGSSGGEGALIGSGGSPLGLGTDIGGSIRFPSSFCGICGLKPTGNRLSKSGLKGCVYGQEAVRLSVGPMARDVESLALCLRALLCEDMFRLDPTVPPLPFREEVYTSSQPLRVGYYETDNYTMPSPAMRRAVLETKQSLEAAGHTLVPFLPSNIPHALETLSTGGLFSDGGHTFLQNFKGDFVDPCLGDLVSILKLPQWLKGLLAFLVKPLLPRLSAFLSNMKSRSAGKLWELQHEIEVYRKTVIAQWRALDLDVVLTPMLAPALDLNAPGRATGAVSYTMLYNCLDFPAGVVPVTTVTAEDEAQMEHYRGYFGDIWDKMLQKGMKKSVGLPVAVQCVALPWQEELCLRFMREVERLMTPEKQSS
Procedure: For assessment of the ability of prodrugs to release creatine, and to release creatine preferentially to unwanted cyclization to creatinine, d3-labeled (deuterium labeled methyl group) prodrugs are incubated with brain homogenates (e.g., mouse, human) specially prepared to preserve FAAH activity or with rFAAH for direct cleavage study. The use of d3-labelled prodrugs is essential in order to distinguish prodrug-derived creatine (d3-creatine) from high concentrations of endogenous (non-labeled) creatine. […] Prodrugs are tested at final concentrations of 20 μM and 200 μM. Approximately 3-4 mg of homogenate is used for each reaction. Co-factor (NADPH) is included at a final concentration of 1 mM. FAAH activity is confirmed by conversion of 7-amino-4-methyl Coumarin-Arachidonamide to 7-amino-4-methyl Coumarin by fluorescent assay. Negative controls include incubations without brain homogenate/rFAAH (but with NADPH) or 65° C. heat inactivated brain homogenate/rFAAH to assess non-enzymatic prodrug cleavage under the conditions of the assay and FAAH inhibitor […] at the concentration of 1 μM. Prodrug incubations are prepared by addition of 8 μL of prodrug stock solution (500 or 5000 μM in DMSO or DMSO/methanol) to assay buffered, followed by addition of brain homogenate/rFAAH. […] The samples are centrifuged at 15890×g for 10 minutes at 4° C., followed by transfer of the supernatants for storage at −20° C. pending LC-MS/MS analysis. Sample supernatants are analyzed by LC-MS/MS for determination of d3-prodrug, d3-creatine and d3-creatinine levels.
Deuterated creatine prodrugs were tested in 3 different in vitro assays to assess d3-creatine (d3-Cr) release and cyclization to form d3-creatinine (d3-Crn). These assays were 1) direct cleavage with recombinant human FAAH enzyme (rFAAH), 2) cleavage in mouse brain homogenates (MBH), and 3) human brain homogenates (HBH).
Creatine prodrug cleavage efficiency was determined by percentage of net d3-Cr release in μM (positive reaction subtracted from negative control of no brain homogenate/rFAAH or inactivated brain homogenate/rFAAH) over nominal input concentration of 200 μM prodrug at 3 h. Propensity for creatinine cyclization was determined by percentage of d3-Crn generated in μM in positive reaction over nominal input concentration of 200 μM prodrug at 3 h.

| AUClast prodrug in the brain ([1]; IV 15 mg/kg) | prodrug, Cellular Uptake (ARPE-19 cells) | AUClast prodrug in the brain ([1]; IV 10 mg/kg) | Prodrug Cleavage rFAAH d3-Crn release (yes/no) [2] | Prodrug Cleavage rFAAH net d3-Cr release (yes/no) [2] | Structure (SMILES) |
| --- | --- | --- | --- | --- | --- |
| BQL |  |  |  |  | Cl.[2H]C([2H])([2H])N(CC(=O)OCC)C(=N)NC(=O)CCCCCCCCCC [Compound 8] |
|  | BQL | BQL | yes | no | Cl.[2H]C([2H])([2H])N(CC(=O)OCCCCCCC)C(=N)NC(=O)CCCCCCCCCCCC [Compound 11] |
|  | BQL |  | yes | no | Cl.[H]/N=C(/NC(=O)CCCCCCC/C=C\CCCCCCCC)N(CC(=O)OCCCCCCC)C([2H])([2H])[2H] [Compound 2, (Z)-heptyl 2-(1-trideuteriomethyl-3-oleoylguanidino)acetate Hydrochloride] |

From patent US11332438B2, “Creatine prodrugs, compositions and methods of use thereof” (Ultragenyx Pharmaceutical Inc., priority 2017, dated 2022)
